{
  "source": "patent US10556927B2",
  "about": "(priority 2014, dated 2020)",
  "system": "HVA calcium channel currents in DRG neuronal cells",
  "type": "cell-based, rat",
  "data": [
    {"smiles": "COC(=O)C1=C(C)NC(C)=C(C(=O)OC)C1c1ccccc1[N+](=O)[O-]", "note": "[Nifedipine]", "values": [
      {"measurement": "current after loading", "result": "−734.31", "unit": "pA"},
      {"measurement": "current before loading", "result": "−1471.35", "unit": "pA"},
      {"measurement": "inhibition rate", "setting": "10 µM", "result": 50.09, "unit": "%"}
    ]}
  ]
}
